Test results reported in patent US20050255537A1, “Method for monitoring treatment with a parathyroid hormone” (priority 1999, published 2005).

Tested on: BSAP and PICP serum levels, NTX urine levels
Experiment: Example 3 clinical trial of rhPTH(1-34) vs alendronate: bone markers
Type: in vivo, human
Details: alendronate 10 mg per day
Protocol: • Number of Subjects: • rhPTH(1-34): 73 enrolled, 51 finished. • Alendronate (Fosamax®): 73 enrolled, 57 finished. • Diagnosis and Inclusion Criteria: Women aged 65±8 years, postmenopausal for 19±19 years, selected for a baseline spine bone mineral density of 0.8±0.1 and a T value of −2.2. Dosage and Administration: • Test Product (blinded) • rhPTH(1-34): 40 μg/day, given subcutaneously • Reference (Control) Therapy (blinded) • Alendronate (Fosamax®): 10 mg per patient per day • Duration of Treatment: • rhPTH(1-34): 12-18 months, with follow up from time of withdrawal of drug to 18 months of study. • Alendronate: 12-18 months, with follow up from time of withdrawal of drug to 18 months of study. • Criteria for Evaluation: Spine x-ray, serum biological markers (calcium, bone-specific alkaline phosphatase, procollagen I carboxy-terminal propeptide); urine makers (calcium, N-telopeptide, fir deoxypyridinoline); 1,25-dihydroxyvitamin D; bone mineral density spine, hip, wrist, and total body.
Measures of BSAP, PICP, and NTX levels were determined for each patient through the course of therapy generally according to methods described above in Example 1.

In the case of `NCCCC(O)(P(=O)(O)O)P(=O)(O)O` [alendronate, reference compound], the PICP serum level (FIG. 8) is reported as “a decrease in PICP was observed”, the NTX urine levels (FIG. 9) is reported as “generally declined slightly during the first 6 months of the study and then remained diminished for the duration of the study” and the BSAP serum level (after about 4 months, FIG. 7) is reported as “A decrease in BSAP level was observed”.
